For one assay, the target named is MLK1 (Homo sapiens (Human), UniProt P80192). The assay is described as follows: Evaluation of inhibitory activity of enzyme units, MLK1 ([γ-33P]-ATP filter assay). The assay is classed as biochemical.
In another assay the target is MLK2 (Homo sapiens (Human), UniProt Q02779). The assay is described as follows: Evaluation of inhibitory activity of enzyme units, MLK2 ([γ-33P]-ATP filter assay). It counts as biochemical.
Assay [1] relates to human lung cancer cell line A549. Put plainly: Cancer cell proliferation inhibitory activity evaluation 2 (CCK-8), A549. The assay is classed as cell-based. The conditions noted are these: A549, 72 h, read-out: Cancer cell proliferation inhibitory activity A549.
Assay [2] deals with gastric cancer cell line Hs746T. Put plainly: Cancer cell proliferation inhibitory activity evaluation 2 (CCK-8), Hs746T. It counts as cell-based. The conditions noted are these: Homo sapiens, 72 h, read-out: Cancer cell proliferation inhibitory activity Hs746T.
The target of a further assay is MLK3 (Homo sapiens (Human), UniProt Q16584). The assay is described as follows: Evaluation of inhibitory activity of enzyme units, MLK3 ([γ-33P]-ATP filter assay). The conditions noted are these: read-out: IC50(nM) MLK3.
Assay [3] relates to gastric cancer cell line AGS. The assay is described as follows: Cancer cell proliferation inhibitory activity evaluation 2 (CCK-8), AGS. The assay is classed as cell-based. The conditions noted are these: Homo sapiens, read-out: Cancer cell proliferation inhibitory activity AGS.
For assay [4], the system named is acute myeloid leukemia cell line U937. The assay is described as follows: Cancer cell proliferation inhibitory activity evaluation 2 (CCK-8), U937. It counts as cell-based. The note with it: Homo sapiens, read-out: Cancer cell proliferation inhibitory activity U937.
Assay [5] concerns acute lymphoblastic leukemia cell line Jurkat. The assay is described as follows: Cancer cell proliferation inhibitory activity evaluation 2 (CCK-8), Jurkat. It counts as cell-based. The note with it: Homo sapiens.
The target of another assay is LRRK2 mutant (G2019S) (Homo sapiens (Human), UniProt Q5S007, G2019S). Put plainly: Evaluation of inhibitory activity against LRRK2 (affinity bead competition binding), G2019S mutant. The note with it: read-out: Residual active values (%) LRRK2(G2019S); for remaining binding at 0.1 µM: 100 nM; for remaining binding at 0.5 µM: 500 nM. As to the method:
(§1) In order to identify the activity inhibitory effect on the LRRK2 wild-type and LRRK2 mutant (G2019S) kinase of the example compound according to the present disclosure, BL21-derived E. coli bacteria (E. coli) were cultured in a 24-well plate until the growth phase (log phase). After culturing, T7 phage tagged with LRRK2 wild-type or LRRK2 mutant (G2019S) was used to infect the multiplicity of infection (MOI) at 0.4. Thereafter, the E. coli bacteria were stirred at 32° C. for 90 to 150 minutes to allow dissolution. The lysate of E. coli bacteria was centrifuged (6,000×g) and filtered (0.2 μm), and the obtained tagged T7 phage […] a DNA-tagged kinase protein (LRRK2 or LRRK2 G2019S) was obtained.
(§2) After blocking the biotinylated ligand with extra biotin, it is washed with Pierce's buffer, SeaBlock (1% BSA, 0.05% Tween 20, 1 mM DTT) to remove unbound ligand and reduce non-specific binding.
(§3) The compound was prepared at a concentration of 40× in 100% DMSO and used after dilution, and all binding reactions were performed in a final volume of 0.02 ml in a 384-well plate.
(§4) The activity inhibitory effect on the LRRK2 wild-type and LRRK2 mutant (G2019S) kinases of the example compounds according to the present disclosure was measured and shown in Table 10 below.

The target of the next assay is LRRK2 wild-type (Homo sapiens (Human), UniProt Q5S007). Put plainly: Evaluation of inhibitory activity against LRRK2 (affinity bead competition binding), wild-type. The conditions noted are these: read-out: Residual active values (%) LRRK2; for remaining binding at 0.1 µM: 100 nM; for remaining binding at 0.5 µM: 500 nM. As to the method:
as §1, §2, §3, §4

For another assay, the system named is Fibronectin-1. Put plainly: Fibrosis inhibition evaluation 2, palmitic acid-induced HepG2, real-time PCR, Fibronectin-1. (In qPCR the cycle at which signal appears reflects the starting amount.)
Another assay has as its system α-SMA. Put plainly: Fibrosis inhibition evaluation 2, palmitic acid-induced HepG2, real-time PCR, α-SMA. The note with it: palmitic acid-induced HepG2 (Table 8).
In another assay the test system is TGF-β1. Put plainly: Fibrosis inhibition evaluation 2, palmitic acid-induced HepG2, real-time PCR, TGF-β1.
The mark [6] stands for this setting: 72 h, read-out: Cancer cell proliferation inhibitory activity Jurkat.
Setting [7] is: U-937, 10 μM, 72 hours, CCK-8 (Table 3).
The mark [8] stands for this setting: 10 μM, 72 hours, CCK-8, read-out: Cancer cell proliferation inhibitory activity Jurkat.

Like-named read-outs stand apart in the source and are kept apart here. A value given as a limit tells only on which side of the number the result lay.

Broadly, the IC50 is the concentration at which inhibition is half-maximal.

Sequence of LRRK2 mutant (G2019S) (Q5S007 whole entry G2019S, looked up): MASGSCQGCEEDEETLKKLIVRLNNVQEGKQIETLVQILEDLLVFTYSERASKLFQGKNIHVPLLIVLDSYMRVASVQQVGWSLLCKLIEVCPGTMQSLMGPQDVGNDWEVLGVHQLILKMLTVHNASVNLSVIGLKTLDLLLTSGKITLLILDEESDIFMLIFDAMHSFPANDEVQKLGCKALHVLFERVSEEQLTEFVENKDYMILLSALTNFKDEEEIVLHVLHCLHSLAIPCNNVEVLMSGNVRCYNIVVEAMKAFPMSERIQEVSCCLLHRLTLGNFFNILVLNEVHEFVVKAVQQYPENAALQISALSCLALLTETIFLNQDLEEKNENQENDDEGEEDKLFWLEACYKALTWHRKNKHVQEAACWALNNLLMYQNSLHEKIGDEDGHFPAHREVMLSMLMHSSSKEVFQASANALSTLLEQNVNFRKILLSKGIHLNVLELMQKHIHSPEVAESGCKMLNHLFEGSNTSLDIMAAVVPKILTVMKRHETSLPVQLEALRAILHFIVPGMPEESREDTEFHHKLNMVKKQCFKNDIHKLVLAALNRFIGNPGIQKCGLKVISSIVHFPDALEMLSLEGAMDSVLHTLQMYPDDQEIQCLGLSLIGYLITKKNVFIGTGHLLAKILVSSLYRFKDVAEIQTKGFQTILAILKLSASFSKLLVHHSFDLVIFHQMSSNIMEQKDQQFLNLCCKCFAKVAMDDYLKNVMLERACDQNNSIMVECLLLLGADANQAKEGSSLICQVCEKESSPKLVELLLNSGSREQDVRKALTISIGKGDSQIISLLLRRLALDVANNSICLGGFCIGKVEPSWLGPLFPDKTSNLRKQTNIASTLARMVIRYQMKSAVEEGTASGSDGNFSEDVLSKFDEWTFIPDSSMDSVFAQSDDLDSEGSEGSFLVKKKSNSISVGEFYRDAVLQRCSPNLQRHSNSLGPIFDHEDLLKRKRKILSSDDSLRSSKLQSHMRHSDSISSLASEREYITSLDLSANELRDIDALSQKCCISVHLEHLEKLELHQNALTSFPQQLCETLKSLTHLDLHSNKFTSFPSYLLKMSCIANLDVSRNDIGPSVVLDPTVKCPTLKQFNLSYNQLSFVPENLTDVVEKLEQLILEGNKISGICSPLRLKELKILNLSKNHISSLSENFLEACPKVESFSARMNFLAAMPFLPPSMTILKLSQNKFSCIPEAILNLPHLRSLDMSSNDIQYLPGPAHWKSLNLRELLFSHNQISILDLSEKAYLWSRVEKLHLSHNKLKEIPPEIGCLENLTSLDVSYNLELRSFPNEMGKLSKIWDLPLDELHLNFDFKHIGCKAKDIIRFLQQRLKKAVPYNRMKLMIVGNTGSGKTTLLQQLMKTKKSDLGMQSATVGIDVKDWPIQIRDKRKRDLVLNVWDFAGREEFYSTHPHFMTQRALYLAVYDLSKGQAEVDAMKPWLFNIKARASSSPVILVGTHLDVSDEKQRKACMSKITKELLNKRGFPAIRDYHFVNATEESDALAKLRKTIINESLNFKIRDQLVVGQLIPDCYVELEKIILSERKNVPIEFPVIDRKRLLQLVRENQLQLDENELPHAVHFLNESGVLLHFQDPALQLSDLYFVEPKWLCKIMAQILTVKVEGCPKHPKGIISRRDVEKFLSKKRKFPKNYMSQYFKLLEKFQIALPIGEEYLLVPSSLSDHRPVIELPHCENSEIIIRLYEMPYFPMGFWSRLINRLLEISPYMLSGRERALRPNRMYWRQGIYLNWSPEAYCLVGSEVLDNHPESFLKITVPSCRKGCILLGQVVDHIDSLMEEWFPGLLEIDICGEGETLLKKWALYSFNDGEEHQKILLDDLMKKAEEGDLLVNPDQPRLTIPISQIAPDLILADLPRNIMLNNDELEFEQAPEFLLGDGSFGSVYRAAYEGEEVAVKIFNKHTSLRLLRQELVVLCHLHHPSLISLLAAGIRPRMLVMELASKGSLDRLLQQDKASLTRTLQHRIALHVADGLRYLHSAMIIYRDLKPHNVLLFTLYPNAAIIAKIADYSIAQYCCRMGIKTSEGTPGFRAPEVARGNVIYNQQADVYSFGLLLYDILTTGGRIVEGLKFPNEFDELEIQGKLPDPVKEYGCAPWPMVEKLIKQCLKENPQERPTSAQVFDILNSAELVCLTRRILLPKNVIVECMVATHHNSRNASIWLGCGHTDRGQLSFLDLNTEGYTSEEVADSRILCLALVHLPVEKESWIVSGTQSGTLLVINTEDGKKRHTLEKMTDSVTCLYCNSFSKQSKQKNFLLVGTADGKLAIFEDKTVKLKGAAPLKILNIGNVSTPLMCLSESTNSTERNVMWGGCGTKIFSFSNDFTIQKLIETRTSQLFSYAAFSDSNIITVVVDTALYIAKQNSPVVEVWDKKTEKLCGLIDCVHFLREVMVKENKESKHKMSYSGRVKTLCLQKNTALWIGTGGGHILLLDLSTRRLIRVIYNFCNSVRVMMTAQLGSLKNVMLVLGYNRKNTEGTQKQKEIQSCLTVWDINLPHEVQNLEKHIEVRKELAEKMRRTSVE
Sequence of MLK1 (P80192 whole entry, looked up): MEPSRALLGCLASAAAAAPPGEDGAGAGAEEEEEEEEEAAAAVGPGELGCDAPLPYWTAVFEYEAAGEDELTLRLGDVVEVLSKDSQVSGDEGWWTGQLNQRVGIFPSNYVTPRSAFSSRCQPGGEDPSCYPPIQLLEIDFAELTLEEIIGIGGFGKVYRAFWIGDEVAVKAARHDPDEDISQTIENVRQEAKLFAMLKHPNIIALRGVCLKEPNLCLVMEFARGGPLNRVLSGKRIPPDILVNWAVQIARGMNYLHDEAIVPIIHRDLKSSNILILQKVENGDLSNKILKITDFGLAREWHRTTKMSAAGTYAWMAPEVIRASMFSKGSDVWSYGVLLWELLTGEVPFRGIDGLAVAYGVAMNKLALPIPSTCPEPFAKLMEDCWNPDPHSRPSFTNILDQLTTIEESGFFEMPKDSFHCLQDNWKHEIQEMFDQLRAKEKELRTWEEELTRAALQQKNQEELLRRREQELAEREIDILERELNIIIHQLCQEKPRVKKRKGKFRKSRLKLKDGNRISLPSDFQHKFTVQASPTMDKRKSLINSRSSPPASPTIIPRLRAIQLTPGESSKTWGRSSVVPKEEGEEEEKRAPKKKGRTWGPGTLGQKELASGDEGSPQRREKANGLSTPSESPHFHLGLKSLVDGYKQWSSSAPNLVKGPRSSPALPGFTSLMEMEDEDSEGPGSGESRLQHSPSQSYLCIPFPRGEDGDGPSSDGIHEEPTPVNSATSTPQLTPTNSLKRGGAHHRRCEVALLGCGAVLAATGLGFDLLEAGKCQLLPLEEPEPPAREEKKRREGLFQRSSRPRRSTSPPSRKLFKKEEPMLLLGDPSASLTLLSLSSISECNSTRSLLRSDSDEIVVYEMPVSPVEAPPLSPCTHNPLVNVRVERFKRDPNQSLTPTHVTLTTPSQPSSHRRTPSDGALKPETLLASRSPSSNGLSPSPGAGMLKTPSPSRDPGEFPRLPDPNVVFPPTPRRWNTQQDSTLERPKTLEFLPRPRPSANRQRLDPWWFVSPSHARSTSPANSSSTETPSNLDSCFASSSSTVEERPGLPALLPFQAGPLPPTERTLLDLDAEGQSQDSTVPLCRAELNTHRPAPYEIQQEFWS
Sequence of LRRK2 wild-type (Q5S007 whole entry, looked up): as the sequence (Q5S007 whole entry G2019S, looked up) above, with S2019G counted along it
Sequence of MLK2 (Q02779 whole entry, looked up): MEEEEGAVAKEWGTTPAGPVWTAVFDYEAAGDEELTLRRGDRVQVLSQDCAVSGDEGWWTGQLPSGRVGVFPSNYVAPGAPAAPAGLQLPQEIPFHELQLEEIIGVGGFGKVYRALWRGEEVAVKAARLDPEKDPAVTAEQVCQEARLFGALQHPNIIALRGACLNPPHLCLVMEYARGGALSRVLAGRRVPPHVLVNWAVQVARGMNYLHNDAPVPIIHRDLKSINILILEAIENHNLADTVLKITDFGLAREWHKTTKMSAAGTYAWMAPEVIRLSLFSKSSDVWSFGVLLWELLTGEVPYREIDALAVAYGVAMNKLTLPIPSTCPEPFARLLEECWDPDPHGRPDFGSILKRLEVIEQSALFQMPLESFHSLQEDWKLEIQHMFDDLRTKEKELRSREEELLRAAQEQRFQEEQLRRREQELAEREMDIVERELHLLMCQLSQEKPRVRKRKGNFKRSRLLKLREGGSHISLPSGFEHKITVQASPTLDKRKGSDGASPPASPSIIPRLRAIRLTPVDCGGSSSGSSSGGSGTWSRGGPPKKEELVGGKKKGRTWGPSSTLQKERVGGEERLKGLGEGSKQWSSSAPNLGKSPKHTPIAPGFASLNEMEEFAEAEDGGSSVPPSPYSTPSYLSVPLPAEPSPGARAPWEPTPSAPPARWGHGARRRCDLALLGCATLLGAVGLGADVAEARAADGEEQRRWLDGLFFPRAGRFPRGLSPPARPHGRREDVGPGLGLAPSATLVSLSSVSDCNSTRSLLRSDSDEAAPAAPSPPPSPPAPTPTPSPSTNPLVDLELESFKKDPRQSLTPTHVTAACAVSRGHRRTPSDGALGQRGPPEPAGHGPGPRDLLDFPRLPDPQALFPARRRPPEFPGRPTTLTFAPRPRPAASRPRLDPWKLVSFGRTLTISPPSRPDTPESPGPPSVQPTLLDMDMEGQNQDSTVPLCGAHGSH

Regarding `CCS(=O)(=O)N1CC[C@H](Nc2c(Br)cnc3nc(-c4cc(C)n(-c5cccc(S(=O)(=O)NC)c5)c4C)[nH]c23)C1` [Example 18, (S)-3-(3-(6-bromo-7-((1-(ethylsulfonyl)pyrrolidine-3-yl)amino)-1H-imidazo[4,5-b]pyridine-2-yl)-2,5-dimethyl-1H-pyrrol-1-yl)-N-methylbenzenesulfonamide], the IC50 on MLK1 is 75 nM; on MLK2, 109 nM; at MLK3 it was 13 nM. In addition, the inhibition at 10 µM in [1] is 10 to 50%; in assay [2] it was 10 to 50%; in assay [3] (72 h), greater than 50%.
As for `CCNS(=O)(=O)c1cccc(-n2c(C)cc(-c3nc4ncc(Br)c(N[C@H]5CCN(S(=O)(=O)CC)C5)c4[nH]3)c2C)c1` [Example 19, (S)-3-(3-(6-bromo-7-((1-(ethylsulfonyl)pyrrolidine-3-yl)amino)-1H-imidazo[4,5-b]pyridine-2-yl)-2,5-dimethyl-1H-pyrrol-1-yl)-N-ethylbenzenesulfonamide], the 50% inhibitory concentration (IC50) against MLK1 turned out to be 36 nM; against MLK2, 90 nM; at MLK3 it was 14 nM. Moreover, the inhibition at 10 µM was greater than 50% in [4] (U-937, 72 h); greater than 50% in assay [3] (72 h); greater than 50% in [5] (setting [6]).
With `CCS(=O)(=O)N1CC[C@H](Nc2c(Br)cnc3nc(-c4cc(C)n(-c5cccc(C(N)=O)c5)c4C)[nH]c23)C1` [Example 20, (S)-3-(3-(6-bromo-7-((1-(ethylsulfonyl)pyrrolidine-3-yl)amino)-1H-imidazo[4,5-b]pyridine-2-yl)-2,5-dimethyl-1H-pyrrol-1-yl)benzamide], the IC50 at MLK1 is 31 nM; on MLK2, 217 nM; on MLK3, 14 nM. The inhibition at 10 µM in assay [4] (U-937, 72 h) was less than 10%; in [3] (72 h) it was 10 to 50%; in assay [5] (setting [6]), 10 to 50%.
For the molecule `CCS(=O)(=O)N1CC[C@H](Nc2c(Br)cnc3nc(-c4cc(C)n(-c5cccc(OCCOC)c5)c4C)[nH]c23)C1` [Example 21, (S)-6-bromo-N-(1-(ethylsulfonyl)pyrrolidine-3-yl)-2-(1-(3-(2-methoxyethoxy)phenyl)-2,5-dimethyl-1H-pyrrol-3-yl)-1H-imidazo[4,5-b]pyridine-7-amine], the half-maximal inhibitory concentration (IC50) stood at 75 nM at MLK1, 243 nM against MLK2 and 15 nM on MLK3. Besides, the inhibition at 10 µM in [4] (U-937, 72 h) is 10 to 50%; in assay [3] (72 h) it was greater than 50%; in assay [5] (setting [6]) it was 10 to 50%.
Regarding `CCS(=O)(=O)N1CC[C@H](Nc2c(Br)cnc3nc(-c4cc(C)n(-c5ccc(OCCOC)cc5)c4C)[nH]c23)C1` [Example 22, (S)-6-bromo-N-(1-(ethylsulfonyl)pyrrolidine-3-yl)-2-(1-(4-(2-methoxyethoxy)phenyl)-2,5-dimethyl-1H-pyrrol-3-yl)-1H-imidazo[4,5-b]pyridine-7-amine], the half-inhibitory concentration (IC50) against MLK1 is 38 nM; against MLK2, 186 nM; on MLK3, 17 nM. The inhibition at 10 µM in assay [3] (10 μM, 72 hours, CCK-8) is 10 to 50%.
For the molecule `CCS(=O)(=O)N1CC[C@H](Nc2c(Br)cnc3nc(-c4cc(C)n(-c5ccc(S(N)(=O)=O)cc5)c4C)[nH]c23)C1` [Example 24, (S)-4-(3-(6-bromo-7-((1-(ethylsulfonyl)pyrrolidine-3-yl)amino)-1H-imidazo[4,5-b]pyridine-2-yl)-2,5-dimethyl-1H-pyrrol-1-yl)benzenesulfonamide], the IC50 at MLK1 was found to be 29 nM; on MLK2, 95 nM; at MLK3, 20 nM. Besides, the inhibition at 10 µM lay in the range of 10 to 50% in assay [4] (U-937, 72 h); 10 to 50% in [3] (72 h); 10 to 50% in assay [5] (setting [6]).
In the case of `CCS(=O)(=O)N1CC[C@H](Nc2c(Br)cnc3[nH]c(-c4cc(C)n(-c5ccccc5)c4C)nc23)C1` [Example 25, (S)-6-bromo-2-(2,5-dimethyl-1-phenyl-1H-pyrrol-3-yl)-N-(1-(ethylsulfonyl)pyrrolidine-3-yl)-3H-imidazo[4,5-b]pyridine-7-amine], the remaining binding at 0.1 µM on LRRK2 mutant (G2019S) turned out to be 15%; on LRRK2 wild-type, 49%. For the same molecule, the remaining binding at 0.5 µM on LRRK2 mutant (G2019S) amounted to 3.3%; at LRRK2 wild-type it was 17%. The values for the IC50 against MLK1, against MLK2 and on MLK3 were 71 nM, 250 nM and 26 nM, respectively. Also, the inhibition at 10 µM in [4] (setting [7]) is 10 to 50%; in [3] (10 μM, 72 hours, CCK-8), greater than 50%; in assay [5] (setting [8]) it was greater than 50%.
For the molecule `Cc1cc(-c2nc3c(Nc4cccc(S(N)(=O)=O)c4)c(Br)cnc3[nH]2)c(C)n1-c1ccc(C(=O)N2CCOCC2)cc1` [Example 27, 3-((6-bromo-2-(2,5-dimethyl-1-(4-(morpholine-4-carbonyl)phenyl)-1H-pyrrol-3-yl)-3H-imidazo[4,5-b]pyridine-7-yl)amino)benzenesulfonamide], the IC50 against MLK1 came to 176 nM; at MLK2 it was 178 nM; at MLK3 it was 20 nM. In addition, the inhibition at 10 µM was less than 10% in [4] (setting [7]); 10 to 50% in [3] (10 μM, 72 hours, CCK-8); less than 10% in assay [5] (setting [8]).
Take `Cc1cc(-c2nc3c(Nc4cccc(S(N)(=O)=O)c4)c(Br)cnc3[nH]2)c(C)n1-c1cc(S(N)(=O)=O)ccc1Cl` [Example 36, 3-(3-(6-bromo-7-((3-sulfamoylphenyl)amino)-3H-imidazo[4,5-b]pyridine-2-yl)-2,5-dimethyl-1H-pyrrole-1-yl)-4-chlorobenzenesulfonamide]: the inhibition at 10 µM was less than 10% in assay [4] (setting [7]); less than 10% in assay [3] (10 μM, 72 hours, CCK-8); less than 10% in [5] (setting [8]). For the same molecule, in the assay on Fibronectin-1, the “Relative degree of expression inhibition (%) Fibronectin-1” value is given as 82.94%. Further, the half-inhibitory concentration (IC50) at MLK3 came out at 46 nM. Moreover, the “Relative degree of expression inhibition (%) α-SMA” value in the assay with α-SMA is 79.46%. In addition, the “Relative degree of expression inhibition (%) TGF-β1” value with TGF-β1 came out at 66.72%.
In the case of `CCS(=O)(=O)N1CC[C@H](Nc2ccnc3nc(-c4cc(C)n(-c5ccc(OCCN6CCOCC6)cc5)c4C)[nH]c23)C1` [Example 53, (S)-2-(2,5-dimethyl-1-(4-(2-morpholinoethoxy)phenyl)-1H-pyrrol-3-yl)-N-(1-(ethylsulfonyl)pyrrolidine-3-yl)-1H-imidazo[4,5-b]pyridine-7-amine], the 50% inhibitory concentration (IC50) at MLK1 is 10600 nM; on MLK3, 23200 nM. Also, in the assay with Fibronectin-1, the “Relative degree of expression inhibition (%) Fibronectin-1” value is on record as 69.92%. Also, the “Relative degree of expression inhibition (%) α-SMA” value in the assay with α-SMA was determined as 74.74%. In addition, in the assay on TGF-β1, the “Relative degree of expression inhibition (%) TGF-β1” value came to 33.15%.
`CCS(=O)(=O)N1CC[C@H](Nc2c(Br)cnc3nc(-c4cc(C)n(-c5cc(NC(=O)CN6CCN(C)CC6)ccc5C)c4C)[nH]c23)C1` [Example 76, N-(3-(3-(6-bromo-7-(((S)-1-(ethylsulfonyl)pyrrolidine-3-yl)amino)-1H-imidazo[4,5-b]pyridine-2-yl)-2,5-dimethyl-1H-pyrrol-1-yl)-4-methylphenyl)-2-(4-methylpiperazine-1-yl) acetamide]: on LRRK2 mutant (G2019S), the remaining binding at 0.1 µM turned out to be 0.9% and the remaining binding at 0.5 µM was determined as 0.1%. In the assay on Fibronectin-1, the “Relative degree of expression inhibition (%) Fibronectin-1” value turned out to be 93.95%. At MLK3, the IC50 was 63 nM. Besides, the “Relative degree of expression inhibition (%) α-SMA” value with α-SMA was 69.54%. At LRRK2 wild-type, the remaining binding at 0.1 µM was 3.6% and the remaining binding at 0.5 µM worked out at 1.1%. Moreover, in the assay with TGF-β1, the “Relative degree of expression inhibition (%) TGF-β1” value worked out at 121.79%.

For the origin of these results see patent US12545673B2, “Imidazopyridine derivative and pharmaceutical composition comprising same as active ingredient” (TSD LIFE SCIENCES CO., LTD., priority 2019, dated 2026).
